Source: US11406707B2, “STAT3 phosphorylation during graft-versus-host disease” (H. LEE MOFFITT CANCER CENTER AND RESEARCH INSTITUTE, INC., priority 2014, dated 2022)

Legend:
[1] = S3I-201 treatment of GVHD in vivo (B6 marrow +/- T-cells into Balb/c mice)
Excerpt: (§1) FIG. 7. B6 T-cell depleted marrow (+/− T-cells) were given to Balb/c mice. S3I-201 or vehicle was given by i.p. from day 0 to day +7 only. Mice were then followed for body weight (FIG. 7B), GVHD clinical scores (FIGS. 7C, 7D), and survival (FIG. 7A).
as §1, with “B6” for “FIG. 7. B6”, “7A). […] All of the GVHD control mice (i.e., TCD marrow+T-cells+vehicle) have since died of GVHD.” for “7A).”

[2] = test system: DC-allosensitized T-cell proliferation; test: allo-MLR T-cell proliferation (colorimetric MTS assay, stimulation index); format: cell-based, human; conditions: for T-cell proliferation: day 5
Method: Allo-MLRs consisted of T cells stimulated by cytokine-mature moDCs (DC:T-cell ratio 1:30, 1×10^5 T cells per 100 μl medium in a 96-well plate, 37° C.). […] The allogeneic moDC stimulators were matured with a cytokine cocktail and terminally differentiated, eliminating the need for irradiation [Betts, B. C., et al. (2011) Blood 118, 5330-5339]. T-cell proliferation was quantified by a colorimetric assay (CellTiter 96 AQueous One Solution Cell Proliferation Assay [MTS]; Promega, Madison, Wis.) on day 5, per the manufacturer's instructions, with absorbance quantified at 490 nm [Betts, B. C., et al. (2011) Blood 118, 5330-5339]. The stimulation index was calculated by dividing the OD of the allo-MLR by the OD of T cells alone. PHA-stimulated T cells served as a positive control. Identical allo-MLRs were cultured with CAS 285986-31-4, to determine the dose-response effect of STAT5 inhibition on allostimulated T-cell growth. For these initial experiments, the cultures were analyzed on day 4 because of the early rapid T-cell proliferation among the STAT5 inhibitor-treated wells. The stimulation index was determined as described.

[3] = test system: S6 ribosomal protein; test: Akt-mTOR-S6 signaling in IL-2-stimulated donor T-cells; format: cell-based, human; conditions: S3I-201 50 uM, 4 hours, IL-2 pulse
Method: (§2) T-cells were serum-starved in RPMI treated with DMSO diluent control, rapamycin 100 ng/ml (EMD Millipore, Billerica, Mass. USA), or STAT3 inhibitor S3I-201 50 uM (H. Lee Moffitt Cancer Center, Drug Discovery Core) for 4 hours. For the STAT3 experiments, the T-cells were first DC-allostimulated (DC:T-cell ratio of 1:30) for 3 days to optimize surface expression of IL-6 receptor alpha and STAT3 signaling among healthy volunteers. The T-cells were then cytokine-pulsed for 15 minutes with either IL-2 (R&D Systems) to activate the Akt-mTOR-S6 pathway, or IL-6 to stimulate STAT3 phosphorylation. The cells were then fixed and permeabilized as described, and then stained for CD3, CD4 (STAT3 experiments), phosphorylated STAT3 Y705, and phosphorylated S6.

[4] = molecular target: T1, STAT3 Y705 (Homo sapiens, UniProt P40763); test: IL-6-STAT3 Y705 phosphorylation in DC-allostimulated donor T-cells; format: cell-based; conditions: S3I-201 50 uM, 4 hours, IL-6 pulse
T1 construct: endogenous in cells; host or cells: primary human T cells from healthy-donor PBMC, allostimulated by monocyte-derived dendritic cells
Method: as §2

T1 sequence (P40763 whole entry): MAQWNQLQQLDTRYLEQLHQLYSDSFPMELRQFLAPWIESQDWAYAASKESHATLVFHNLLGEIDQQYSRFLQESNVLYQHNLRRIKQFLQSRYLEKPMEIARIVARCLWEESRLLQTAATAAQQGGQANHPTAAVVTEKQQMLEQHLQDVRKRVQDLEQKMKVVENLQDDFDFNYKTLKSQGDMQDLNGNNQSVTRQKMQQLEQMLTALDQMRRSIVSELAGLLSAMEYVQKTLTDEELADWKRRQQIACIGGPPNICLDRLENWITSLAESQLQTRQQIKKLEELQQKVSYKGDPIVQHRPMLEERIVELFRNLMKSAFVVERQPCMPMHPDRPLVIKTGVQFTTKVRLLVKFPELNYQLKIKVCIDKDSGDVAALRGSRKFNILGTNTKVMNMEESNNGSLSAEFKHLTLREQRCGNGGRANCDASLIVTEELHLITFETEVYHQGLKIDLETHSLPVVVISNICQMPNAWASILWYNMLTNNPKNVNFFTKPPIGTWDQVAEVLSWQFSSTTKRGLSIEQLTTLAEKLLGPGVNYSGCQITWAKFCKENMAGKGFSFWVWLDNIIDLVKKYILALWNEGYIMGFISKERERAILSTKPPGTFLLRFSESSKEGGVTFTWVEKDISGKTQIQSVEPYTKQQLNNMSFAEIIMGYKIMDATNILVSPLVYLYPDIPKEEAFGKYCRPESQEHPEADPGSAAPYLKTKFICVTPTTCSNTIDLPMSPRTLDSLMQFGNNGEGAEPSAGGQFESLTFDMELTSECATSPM

Structure (SMILES): Cc1ccc(S(=O)(=O)OCC(=O)Nc2ccc(C(=O)O)c(O)c2)cc1 [S3I-201]
- tolerability ([1]; 2.5 mg/kg i.p. day 0 to day +7): well tolerated
- tolerability ([1]; 5 mg/kg i.p. day 0 to day +7): toxic
- survival ([1]; S3I-201 i.p. day 0 to day +7, GVHD control mice all died): alive at day +53
- reduction in T-cell proliferation ([2]; S3I-201 50 μM added once day 0, readout day 5): 50%
- T-cell proliferation ([2]; S3I-201 100 μM): complete impairment
- T-cell proliferation ([2]; S3I-201 1 or 10 μM): little effect
- T-cell proliferation in allo-MLRs compared with DMSO ([2]; S3I-201 50 or 100 μM, FIG. 1B): significantly reduced
- S6 activation [3]: modestly reduced
- IL-6-mediated STAT3 phosphorylation of Y705 [4]: significantly decreased
